Measurements as given in US11634384B2, “Prodrugs of phenolic TRPV1 agonists” (Concentric Analgesics, Inc., priority 2014, dated 2023).
Where two headings read alike, the source gives them in different places.

Tests used:
TRPV receptor [1] = molecular target: T1, TRPV receptor (Rattus norvegicus, UniProt O35433); conditions: historical controls; read-out: historical control value; cited from earlier work
T1 construct: purchased Eurofins, Panlabs/Cerep 286810

TRPV receptor [2] = molecular target: T1, TRPV receptor; assay: biochemical; format: binding
[3] = In vitro (pH stability) assay: intramolecular cyclization-release of capsaicin; format: physicochemical
Protocol: These compounds are examples of pH activated prodrugs whereby upon exposure to a specific pH, the half-life of the intramolecular cyclization-release reaction is determined. As previously described, the intramolecular cyclization-release reaction results in the concomitant formation of a cyclic urea with the release of the parent drug.
Compounds were incubated in the buffer/biological media indicated (TRIS® obtained from Sigma-Aldrich, St. Louis, Mo., USA, Catalog No. T1503). The reactions were conducted at either room temperature or 37° C.

[4] = comparison value; cited from earlier work
[5] = Solubility assay in DI water; format: physicochemical; conditions: for solubility at 24 h: thermodynamic from solid, HCl salts, incubated at 50 or 100 mg/mL in DI water, shaking 24 hours, supernatant quantified
Protocol: In order to determine the aqueous solubility of the compounds described herein, the HCl salts of the following compounds were incubated at either 50 or 100 mg/mL in DI water followed by shaking for 24 hours. The solutions were then centrifuged and visually inspected for insoluble material. In all cases, no insoluble material was observed.

[6] = pH 7.4, pH = ~7.4 (0.3M aqueous tris buffer), 20° C., read-out: Intramolecular Cyclization-Release Half-life (T1/2)
[7] = pH 7.4, pH = ~7.4 (1.0M aqueous tris buffer), 37° C., read-out: Intramolecular Cyclization-Release Half-life (T1/2)

T1 sequence (O35433 whole entry): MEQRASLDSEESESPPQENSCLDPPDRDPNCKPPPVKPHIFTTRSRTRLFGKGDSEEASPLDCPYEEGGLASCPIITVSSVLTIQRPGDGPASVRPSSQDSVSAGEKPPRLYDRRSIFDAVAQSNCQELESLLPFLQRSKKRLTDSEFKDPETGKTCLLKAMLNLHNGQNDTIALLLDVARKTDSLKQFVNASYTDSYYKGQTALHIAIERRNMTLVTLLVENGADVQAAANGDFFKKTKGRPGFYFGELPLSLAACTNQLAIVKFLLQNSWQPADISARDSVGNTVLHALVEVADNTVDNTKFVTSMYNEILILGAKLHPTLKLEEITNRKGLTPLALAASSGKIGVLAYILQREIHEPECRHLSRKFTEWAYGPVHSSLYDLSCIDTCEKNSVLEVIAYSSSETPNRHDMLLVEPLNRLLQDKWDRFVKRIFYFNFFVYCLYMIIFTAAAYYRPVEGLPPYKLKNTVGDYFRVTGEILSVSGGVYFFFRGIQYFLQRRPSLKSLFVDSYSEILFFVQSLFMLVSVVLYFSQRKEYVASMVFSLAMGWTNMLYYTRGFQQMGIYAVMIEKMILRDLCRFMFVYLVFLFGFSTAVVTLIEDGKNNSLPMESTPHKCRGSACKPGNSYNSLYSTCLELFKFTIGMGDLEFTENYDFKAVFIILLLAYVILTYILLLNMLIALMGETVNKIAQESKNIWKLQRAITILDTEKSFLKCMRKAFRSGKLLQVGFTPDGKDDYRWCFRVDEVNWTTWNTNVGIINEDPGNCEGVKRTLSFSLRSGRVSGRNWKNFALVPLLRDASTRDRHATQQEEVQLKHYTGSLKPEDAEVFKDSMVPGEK

Question: With C=C(C)[C@]12C[C@@H](C)[C@@]34O[C@](Cc5ccccc5)(O[C@@H]1[C@@H]3C=C(COC(=O)Cc1ccc(O)c(OC)c1)C[C@]1(O)C(=O)C(C)=C[C@@H]41)O2 [Resiniferatoxin, reference compound] as the compound, how does the IC50 (TRPV receptor [1]) read?
Answer: 0.46 nM

Question: And the IC50 (TRPV receptor [2])?
Answer: 0.16 nM

Question: Which half-life at 2 weeks ([3]; pH 7.4, pH = ~7.4 (0.3M aqueous tris buffer), 20° C., conversion to capsaicin over 2 weeks, read-out: Intramolecular Cyclization-Release Half-life (T1/2)) does the source give for COc1cc(CNC(=O)CCCC/C=C/C(C)C)ccc1OC(=O)N1CCNCC1 [Compound 8, (E)-2-methoxy-4-((8-methylnon-6-enamido)methyl)phenyl piperazine-1-carboxylate] here?
Answer: > 336 h

Question: And the inhibition at 100 µM (TRPV receptor [2]; @ 100 uM)?
Answer: 23%

Question: And the IC50 (TRPV receptor [2]; read-out: IC50)?
Answer: > 100000 nM

Question: For COc1cc(CNC(=O)CCCCC=CC(C)C)ccc1O [Capsaicin, 8-methyl-N-vanillyl-6-nonenamide], which “aqueous solubility of capsaicin in water” value [4] is on record?
Answer: ~0.064 mg/mL

Question: Which half-life [3, 6] does the source give for COc1cc(CNC(=O)CCCC/C=C/C(C)C)ccc1OC(=O)N1CCCC1CN (stereo not drawn) [Compound 4, (E)-2-methoxy-4-((8-methylnon-6-enamido)methyl)phenyl 2-(aminomethyl)pyrrolidine-1-carboxylate] here?
Answer: ~295 h

Question: With COc1cc(CNC(=O)CCCC/C=C/C(C)C)ccc1OC(=O)N1CCCCC1CN (stereo not drawn) [Compound 3, (E)-2-methoxy-4-((8-methylnon-6-enamido)methyl)phenyl 2-(aminomethyl)piperidine-1-carboxylate] as the compound, how does the “increase in aqueous solubility from the parent compound, capsaicin” value ([5]; hydrogen chloride salts vs capsaicin) read?
Answer: > 780 fold

Question: What about the solubility at 24 h [5] of the same compound?
Answer: > 100 mg/mL

Question: What about the half-life [3, 6] of the same compound?
Answer: ~0.527 h

Question: What about the half-life [3, 7] of the same compound?
Answer: ~0.215 h

Question: Which half-life [3, 6] does the source give for COc1cc(CNC(=O)CCCC/C=C/C(C)C)ccc1OC(=O)N(C)CCN [Compound 1, (E)-2-methoxy-4-((8-methylnon-6-enamido)methyl)phenyl (2-aminoethyl)(methyl)carbamate] here?
Answer: ~24.1 h

Question: What does the source list for COc1cc(CNC(=O)CCCC/C=C/C(C)C)ccc1OC(=O)N(CCN)CCN [Compound 5, (E)-2-methoxy-4-((8-methylnon-6-enamido)methyl)phenyl bis(2-aminoethyl)carbamate]?
Answer: solubility at 24 h [5]: > 100 mg/mL; half-life [3, 6]: ~1.18 h; half-life [3, 7]: ~0.412 h

Question: With CNCCN(C)C(=O)Oc1ccc(CNC(=O)CCCC/C=C/C(C)C)cc1OC [Compound 2, (E)-2-methoxy-4-((8-methylnon-6-enamido)methyl)phenyl methyl(2-(methylamino)ethyl)carbamate] as the compound, how does the half-life [3, 6] read?
Answer: ~3.2 h

Question: For CNCC1CCCCN1C(=O)Oc1ccc(CNC(=O)CCCC/C=C/C(C)C)cc1OC (stereo not drawn) [Compound 7, (E)-2-methoxy-4-((8-methylnon-6-enamido)methyl)phenyl 2-((methylamino)methyl)piperidine-1-carboxylate], which solubility at 24 h [5] is on record?
Answer: > 50 mg/mL

Question: What about the “intramolecular cyclization-release half-life, order of magnitude in words” value [3] of the same compound?
Answer: minutes

Question: What about the “Intramolecular Cyclization-Release Half-life (T1/2)” value ([3]; pH 7.4) of the same compound?
Answer: ~3.1 min

Question: And the half-life ([3]; pH 7.4, Intramolecular Cyclization-Release Half-life (T1/2))?
Answer: ~0.0733 h

Question: With COc1cc(CNC(=O)CCCC/C=C/C(C)C)ccc1OC(=O)N(C)CCCN [Compound 6, (E)-2-methoxy-4-((8-methylnon-6-enamido)methyl)phenyl (3-aminopropyl)(methyl)carbamate] as the compound, how does the half-life [3, 6] read?
Answer: ~739 h
